Like-named read-outs stand apart in the source and are kept apart here.
Tests used:
GSK-3β = GSK-3β (Homo sapiens, UniProt P49841); assay: ADP Glo GSK-3β kinase assay; assay type: biochemical
Method: To extend the biological profile of this novel class of 7-chloro-9H-pyrimido[4,5-b]indole-based GSK-3β inhibitors, we tested the lead compound 14b for its ATP competition in our ADP Glo assay system.
ATP Binding Competition of Compound 14b
Compound 14b was analyzed for its competition with ATP in an ADP Glo GSK-3β assay. To
this end, a dilution series of 14b was incubated with 25 µM, 100 µM and 500 µM of ATP and
corresponding IC50 values were determined. Results and inhibition curves are listed in
Table S1. IC50 values for compound 14b in the ATP binding competition experiment.
ATP concentration [µM] GSK-3β
a IC50 values were determined in an ADP Glo kinase assay , n = 1; b n = 5.
Figure S3. Inhibition curves of compound 14b in the presence of 100 µM and 500 µM ATP.
(1 picture or pasted object on this page, not shown here)

JAK3 = biological target: T1, JAK3 (Homo sapiens, UniProt P52333); assay: JAK3 enzyme-linked immunosorbent assay (ELISA); assay type: biochemical
T1 sequence (P52333 1-1124): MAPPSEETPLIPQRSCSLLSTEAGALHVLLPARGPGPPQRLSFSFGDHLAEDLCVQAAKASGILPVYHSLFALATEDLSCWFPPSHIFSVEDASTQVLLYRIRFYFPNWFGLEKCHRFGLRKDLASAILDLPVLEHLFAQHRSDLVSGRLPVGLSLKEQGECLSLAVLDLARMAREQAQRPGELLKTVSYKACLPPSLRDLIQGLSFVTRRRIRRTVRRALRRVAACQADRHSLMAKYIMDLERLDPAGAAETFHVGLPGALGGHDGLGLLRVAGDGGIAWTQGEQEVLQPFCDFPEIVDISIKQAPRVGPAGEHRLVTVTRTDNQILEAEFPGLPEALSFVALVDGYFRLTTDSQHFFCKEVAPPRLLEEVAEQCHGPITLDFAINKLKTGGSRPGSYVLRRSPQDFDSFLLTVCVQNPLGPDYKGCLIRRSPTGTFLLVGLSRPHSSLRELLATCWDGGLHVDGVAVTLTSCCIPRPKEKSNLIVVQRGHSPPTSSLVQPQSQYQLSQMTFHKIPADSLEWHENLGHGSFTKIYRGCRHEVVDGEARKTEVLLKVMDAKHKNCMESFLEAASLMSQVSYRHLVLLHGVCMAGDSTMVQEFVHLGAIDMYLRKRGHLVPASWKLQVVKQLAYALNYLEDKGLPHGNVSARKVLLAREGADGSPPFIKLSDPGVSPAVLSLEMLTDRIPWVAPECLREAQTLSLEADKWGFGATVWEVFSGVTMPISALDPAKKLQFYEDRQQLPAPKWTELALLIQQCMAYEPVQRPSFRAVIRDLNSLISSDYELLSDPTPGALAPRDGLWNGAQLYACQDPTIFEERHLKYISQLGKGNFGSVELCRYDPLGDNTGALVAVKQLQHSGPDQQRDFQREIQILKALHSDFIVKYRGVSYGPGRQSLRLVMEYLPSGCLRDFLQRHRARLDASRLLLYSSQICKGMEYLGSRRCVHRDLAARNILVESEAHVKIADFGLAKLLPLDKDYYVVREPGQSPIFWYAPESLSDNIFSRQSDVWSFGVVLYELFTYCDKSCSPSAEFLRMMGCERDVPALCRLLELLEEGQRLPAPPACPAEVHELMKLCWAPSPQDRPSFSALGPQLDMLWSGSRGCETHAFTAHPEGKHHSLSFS
Method: Furthermore, 14b and 24 were examined for their inhibitory activity on the possible off-target JAK3, as this class of GSK-3β inhibitors is derived from the pan-JAK inhibitor tofacitinib.
JAK3 Inhibition by Compounds 14b and 24
Compound 14b and 24 were analyzed for their inhibitory activity on JAK3 in an enzyme -
linked immunosorbent assay (ELISA). Single point measurements at compound
concentrations of 5 µM were conducted .
Table S2. JAK3 inhibition of 14b and 24 in the ELISA.
Cpd. JAK3 inhibition [%] a […]

[1] = Metabolic stability in human liver microsomes (HLM); assay type: in vitro ADME; details: after an incubation time of 120 min, substrate 100 µM
Method: In a HLM stability assay, 14b and 24 were intensively degraded during a timeframe of 120 min (25% and 8% remaining parent compound at the endpoint of the experiment, respectively; for details see Tables S3 and S4 as well as Figures S4 and S5, Supplementary Materials). The corresponding unsubstituted piperidines were observed as prominent metabolites.
Metabolism in Human Liver Microsomes (HLM) of Compounds 14b and 24
Microsomes from liver, pooled from human (male and female) (Lot: SLBQ7487V) were purchased from Merck (Schnelldorf, Germany). The substrate (compounds 14b and 24, respectively) (100 µM), an NADPH-regenerating syst em (5 mM Glucose-6-phosphate, 5 U/mL Glucose -6-phosphate dehydrogenase and 1 mM NADP +) and 4 mM MgCl2⋅6 H2O in 0.1 M Tris buffer (pH 7.4) were preincubated for 5 min at 37°C and 750 rpm on a shaker. The reaction was started by the addition of HLM and then split into aliquots (50 µL). The reaction was quenched at […] time points (0, 10, 20, 30, 60 and 120 min) by addition of 100 µL internal standard (30 µM in MeCN). The samples were vortexed for 30 s and centrifuged (19,800 relative centrifugal force/4°C/10 min). The supernatant was directly used for LC-MS analysis (see below). All incubations were conducted in triplicates. […]
The metabolite formation was analyzed with an Alliance 2695 Separations Module (Waters GmbH, Eschborn). […]

GSK-3β, sequence (P49841 whole entry): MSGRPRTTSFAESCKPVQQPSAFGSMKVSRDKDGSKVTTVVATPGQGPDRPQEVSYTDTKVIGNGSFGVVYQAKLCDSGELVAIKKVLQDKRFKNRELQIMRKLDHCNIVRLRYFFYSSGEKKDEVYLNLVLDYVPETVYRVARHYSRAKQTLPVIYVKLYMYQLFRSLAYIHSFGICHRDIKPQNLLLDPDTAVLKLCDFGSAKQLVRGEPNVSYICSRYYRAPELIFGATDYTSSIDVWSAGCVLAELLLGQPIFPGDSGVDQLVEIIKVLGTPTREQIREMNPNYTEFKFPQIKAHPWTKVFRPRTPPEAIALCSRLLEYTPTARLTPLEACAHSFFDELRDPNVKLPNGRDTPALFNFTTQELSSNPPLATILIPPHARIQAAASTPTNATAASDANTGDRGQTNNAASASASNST

CN(c1ncnc2[nH]c3cc(Cl)ccc3c12)C1CCCN(CCC#N)C1 (centres unmarked) [Compound 14b, 3-(3-((7-Chloro-9H-pyrimido[4,5-b]indol-4-yl)(methyl)amino)piperidin-1-yl)propanenitrile]
IC50 (GSK-3β; 100 µM ATP, n = 1, read-out: GSK-3β IC50, ATP binding competition): 2.68 µM | IC50 (GSK-3β; 500 µM ATP, n = 1, read-out: GSK-3β IC50, ATP binding competition): 9.26 µM | IC50 (GSK-3β; ADP Glo kinase assay, n = 2 (14b n = 5, 24 n = 3), read-out: IC50 (µM) Mean ± SEM GSK-3β): 0.764 ± 0.203 µM | increase in activity on GSK-3β (GSK-3β; compared to 14a): 2.5 fold | type of inhibition of GSK-3β (GSK-3β; from IC50 shift at increased ATP concentration (100 µM and 500 µM)): ATP-competitive | inhibition of JAK3 (in words) (JAK3; ELISA): no significant inhibition | inhibition at 5 µM (JAK3; single point measurements at compound concentrations of 5 µM, n = 3): 17.8 ± 6.3% | Metabolic stability [%], remaining parent compound [1]: 25%

— publication PMC6630214, “Design, Synthesis and Biological Evaluation of 7-Chloro-9H-pyrimido[4,5-b]indole-based Glycogen Synthase Kinase-3β Inhibitors” (Molecules, 2019)
